Laboratory results published in patent publication US20040192759A1, “Use of nefiracetam for treating neurodegeneration” (priority 2004, published 2004).
Entries after “also recorded” stand apart in the source; their conditions may differ.

Assays:
[1] = system: post-stroke patients; test: controlled clinical trial against placebo in post-stroke patients, improvement rating by duration from stroke; type: in vivo, human
Experimental: The activity of nefiracetam to improve ADL in post-stroke patients has been discovered during a controlled clinical trial against placebo. The compound has been administered orally (450 mg/day, three times daily) to 32 post-stroke patients within six months after the event whilst, concurrently, 27 patients received placebo. The two groups of patients were followed during at least 8 weeks and followed up at the end of week 4 and at the end of week 8 on a symptom scale measuring Activities of Daily Living. […] Among the above 59 patients, 19 received nefiracetam and 10 received placebo within three months after stroke. […] The difference was significant (p=0.035, χ^2 test).
Further, the action of nefiracetam on the patient who had been treated with nefiracetam early after stroke or later was evaluated.

[2] = system: hippocampal rat embrio neurons; test: neurite outgrowth in primary cultures of hippocampal neurons; type: cell-based
[3] = system: cortical rat embrio neurons; test: neurite outgrowth in primary cultures of cortical neurons; type: cell-based; conditions: 0.1, 1, 10 and 100 micromoles/l
[4] = system: rats with cerebral embolism; test: spatial learning and retention (watermaze) of rats with cerebral embolism; type: in vivo, male Wistar rats
Experimental: This assumption is confirmed by the effect of nefiracetam on spatial learning and retention in rats with cerebral embolism, treated for 9 days with nefiracetam or vehicle, starting within 24 hours of embolization.
In male Wistar rats weighing 190-220 g a total of 700 microspheres (48 μm in diameter) were injected into the right common carotid artery of each animal, whereby a quasi-immediate embolism occurs. The embolized animals were randomly divided into 2 groups, each of 13 animals with same neurological deficit, designated as “Control” (embolism plus Vehicle), or “Nefiracetam” (embolism plus nefiracetam 10 mg/kg/day). In addition, a group of 13 “Normal (Sham)” non-embolized animals were used. The administration of nefiracetam or of its vehicle started within the same day of embolization and treatment lasted 9 days. Seven days after embolization, the embolized rats were submitted to a watermaze test, said watermaze being adapted from the Morris water task. The time taken to find the platform (latency) was determined. […] The experiment was carried out in two different sessions. In the first session, at the seventh day embolized rats were submitted to the spatial learning test performed three trials per day for three days (from day 7 to day 9). In the second session, one week after the last day of spatial learning test […], a retention test was performed whereby each rat was given three consecutive trials to learn and remember the location of the platform.

[5] = system: patients after a stroke (cerebral infarction or cerebral hemorrhage); conditions: Ohtomo et al., global results; cited from earlier work
[6] = system: stroke patients; conditions: Hirata et al.; cited from earlier work
[7] = Overall (all durations from stroke)
[8] = duration from stroke <12 months
[9] = duration from stroke ≧12 months

## Cc1cccc(C)c1NC(=O)CN1CCCC1=O [nefiracetam, N-(2,6-dimethylphenyl)-2-(2-oxo-1-pyrrolidinyl)acetamide]
[1]; 450 mg/day orally, within six months after stroke, 32 patients, weeks 4 and 8
  improvement on symptom scale measuring Activities of Daily Living (in words): moderate or remarkable improvement
[1]; [7]
  Emotional Disturbance, Improvement Rate (Percent Patients Remarkably or Moderately Improved): Overall 22.6%
  Global Improvement Rating, Improvement Rate (Percent Patients Remarkably or Moderately Improved): Overall 32.3%
  Intellectual Dysfunction, Improvement Rate (Percent Patients Remarkably or Moderately Improved): Overall 11.9%
  Psychiatric Symptoms, Improvement Rate (Percent Patients Remarkably or Moderately Improved): Overall 30.8%
  Reduced Spontaneity, Improvement Rate (Percent Patients Remarkably or Moderately Improved): Overall 23.4%
[1]; duration from stroke <3 months
  ADL Improvement, Improvement Rate (Percent Patients Remarkably or Moderately Improved): 41.7%
  ADL Improvement, Improvement Rate (patients improved/patients): 5/12
  Emotional Disturbance, Improvement Rate (Percent Patients Remarkably or Moderately Improved): 70.6%
  Emotional Disturbance, Improvement Rate (patients improved/patients): 12/17
  Global Improvement Rating, Improvement Rate (Percent Patients Remarkably or Moderately Improved): 68.4%
  Global Improvement Rating, Improvement Rate (patients improved/patients): 13/19
  Intellectual Dysfunction, Improvement Rate (Percent Patients Remarkably or Moderately Improved): 43.8%
  Intellectual Dysfunction, Improvement Rate (patients improved/patients): 7/16
  Psychiatric Symptoms, Improvement Rate (Percent Patients Remarkably or Moderately Improved): 68.4%
  Psychiatric Symptoms, Improvement Rate (patients improved/patients): 13/19
  Reduced Spontaneity, Improvement Rate (Percent Patients Remarkably or Moderately Improved): 61.1%
  Reduced Spontaneity, Improvement Rate (patients improved/patients): 11/18
[1]; duration from stroke <6 months
  ADL Improvement, Improvement Rate (Percent Patients Remarkably or Moderately Improved): 21.7%
  ADL Improvement, Improvement Rate (patients improved/patients): 5/23
  Emotional Disturbance, Improvement Rate (Percent Patients Remarkably or Moderately Improved): 48.3%
  Emotional Disturbance, Improvement Rate (patients improved/patients): 14/29
  Global Improvement Rating, Improvement Rate (Percent Patients Remarkably or Moderately Improved): 50.0%
  Global Improvement Rating, Improvement Rate (patients improved/patients): 16/32
  Intellectual Dysfunction, Improvement Rate (Percent Patients Remarkably or Moderately Improved): 29.6%
  Intellectual Dysfunction, Improvement Rate (patients improved/patients): 8/27
  Psychiatric Symptoms, Improvement Rate (Percent Patients Remarkably or Moderately Improved): 50.0%
  Psychiatric Symptoms, Improvement Rate (patients improved/patients): 16/32
  Reduced Spontaneity, Improvement Rate (Percent Patients Remarkably or Moderately Improved): 46.7%
  Reduced Spontaneity, Improvement Rate (patients improved/patients): 14/30
[1]; [8]
  ADL Improvement, Improvement Rate (Percent Patients Remarkably or Moderately Improved): 14.3%
  ADL Improvement, Improvement Rate (patients improved/patients): 5/35
  Emotional Disturbance, Improvement Rate (Percent Patients Remarkably or Moderately Improved): 48.8%
  Emotional Disturbance, Improvement Rate (patients improved/patients): 21/43
  Global Improvement Rating, Improvement Rate (Percent Patients Remarkably or Moderately Improved): 50.0%
  Global Improvement Rating, Improvement Rate (patients improved/patients): 24/48
  Intellectual Dysfunction, Improvement Rate (Percent Patients Remarkably or Moderately Improved): 23.1%
  Intellectual Dysfunction, Improvement Rate (patients improved/patients): 9/39
  Psychiatric Symptoms, Improvement Rate (Percent Patients Remarkably or Moderately Improved): 50.0%
  Psychiatric Symptoms, Improvement Rate (patients improved/patients): 24/48
  Reduced Spontaneity, Improvement Rate (Percent Patients Remarkably or Moderately Improved): 46.7%
  Reduced Spontaneity, Improvement Rate (patients improved/patients): 21/45
[1]; duration from stroke ≧3 months
  ADL Improvement, Improvement Rate (Percent Patients Remarkably or Moderately Improved): 1.2%
  ADL Improvement, Improvement Rate (patients improved/patients): 1/81
[1]; duration from stroke ≧6 months
  ADL Improvement, Improvement Rate (Percent Patients Remarkably or Moderately Improved): 1.4%
  ADL Improvement, Improvement Rate (patients improved/patients): 1/70
  Emotional Disturbance, Improvement Rate (Percent Patients Remarkably or Moderately Improved): 14.7%
  Emotional Disturbance, Improvement Rate (patients improved/patients): 14/95
  Global Improvement Rating, Improvement Rate (Percent Patients Remarkably or Moderately Improved): 26.5%
  Global Improvement Rating, Improvement Rate (patients improved/patients): 26/98
  Intellectual Dysfunction, Improvement Rate (Percent Patients Remarkably or Moderately Improved): 6.1%
  Intellectual Dysfunction, Improvement Rate (patients improved/patients): 5/82
  Psychiatric Symptoms, Improvement Rate (Percent Patients Remarkably or Moderately Improved): 24.5%
  Psychiatric Symptoms, Improvement Rate (patients improved/patients): 24/98
  Reduced Spontaneity, Improvement Rate (Percent Patients Remarkably or Moderately Improved): 16.0%
  Reduced Spontaneity, Improvement Rate (patients improved/patients): 15/94
[1]; [9]
  ADL Improvement, Improvement Rate (Percent Patients Remarkably or Moderately Improved): 1.7%
  ADL Improvement, Improvement Rate (patients improved/patients): 1/58
  Emotional Disturbance, Improvement Rate (Percent Patients Remarkably or Moderately Improved): 8.6%
  Emotional Disturbance, Improvement Rate (patients improved/patients): 7/81
  Global Improvement Rating, Improvement Rate (Percent Patients Remarkably or Moderately Improved): 22.0%
  Global Improvement Rating, Improvement Rate (patients improved/patients): 18/82
  Intellectual Dysfunction, Improvement Rate (Percent Patients Remarkably or Moderately Improved): 5.7%
  Intellectual Dysfunction, Improvement Rate (patients improved/patients): 4/70
  Psychiatric Symptoms, Improvement Rate (Percent Patients Remarkably or Moderately Improved): 19.5%
  Psychiatric Symptoms, Improvement Rate (patients improved/patients): 16/82
  Reduced Spontaneity, Improvement Rate (Percent Patients Remarkably or Moderately Improved): 10.1%
  Reduced Spontaneity, Improvement Rate (patients improved/patients): 8/79
[1]; early treatment after stroke
  incontinence of urines: tends to improve
  neurological signs: tends to improve
[2]; 0.1, 1, 10 and 100 micromoles/l
  neurotrophic effect (neurite outgrowth): significantly increasing neurite outgrowth
[2]; with bFGF
  neurite outgrowth effect in combination with bFGF: potentiated by bFGF
[3]
  neurotrophic effect (neurite outgrowth): significantly increasing neurite outgrowth
[4]; Day 7, 10 mg/kg/day, of 13 rats
  Number of rats which failed to find the platform within 180 Sec., Spatial learning test: 8
[4]; Day 7 after embolization, 10 mg/kg/day for 9 days, n 13
  Latency to reach the platform, Spatial learning test: 147.6 ± 14.1 s
[4]; Day 8, 10 mg/kg/day, of 13 rats
  Number of rats which failed to find the platform within 180 Sec., Spatial learning test: 2
[4]; Day 8 after embolization, 10 mg/kg/day for 9 days, n 13
  Latency to reach the platform, Spatial learning test: 83.7 ± 17.4 s
[4]; Day 9, 10 mg/kg/day, of 13 rats
  Number of rats which failed to find the platform within 180 Sec., Spatial learning test: 2
[4]; Day 9 after embolization, 10 mg/kg/day for 9 days, n 13
  Latency to reach the platform, Spatial learning test: 93.1 ± 16.2 s
[4]; Day 17, 10 mg/kg/day, of 13 rats
  Number of rats which failed to find the platform within 180 Sec., Retention test: 2
[4]; Day 17 after embolization (after washout), 10 mg/kg/day for 9 days, n 13
  Latency to reach the platform, Retention test: 72.2 ± 17.0 s
[4]; day 17 after embolization, after washout
  effect in retention test vs vehicle (in words): maintained even after washout; also recorded: remakable difference
[4]; days 7 to 9 after embolization
  learning ability in place-learning watermaze task vs vehicle (in words): clear difference between nefiracetam and vehicle-treated animals
[5]
  activities of daily living, nefiracetam vs placebo: no significant difference between the two groups
  psychiatric symptoms: improves the psychiatric symptoms
[6]
  improvement of mental function tests: not significant
